Measurements: US12110287B2, “Heterocyclic derivatives as Nav1.7 and Nav1.8 blockers” (RaQualia Pharma Inc., priority 2018, dated 2024)

Key:
Nav1.7 [1] = biological target: T1, Nav1.7 (Homo sapiens, UniProt Q15858); assay: Electrophysiology assay (whole cell patch clamp), affinity to inactivated state; assay type: cell-based; parameters: expressed in transfected cells; conditions: affinity to inactivated state (Kinact), read-out: activity (Ki) against Nav1.7
Protocol: Whole cell patch clamp recording is used to assess the efficacy or selectivity of Na (Sodium) channel blocker on human voltage gated sodium channels. Na channel expressing cells are dissociated by 0.05% Trypsin-EDTA or Accutase, and then seeded on cover glass for 2-24 hours.
Manual patch clamp recordings are conducted at rt using the voltage-clamp amplifier (Axon Instruments or HEKA electronik). Electrodes are pulled with P-97 electrode puller (Sutter Instrument). The electrode resistances are 1-3 MOhm when intercellular solution is filled. Currents are lowpass filtered between 2-5 kHz and digitally sampled at 10 kHz. […]
After whole-cell configuration is achieved, cell is monitored at least 10 minutes to allow cell dialysis with pipette solution. […]
Peak currents evoked by Test 1 and Test 2 pulses are sampled with Clampex (Axon Instruments) or Pulse+Pulse Fit (HEKA). Averaged peak currents under vehicle or test compounds are calculated from 3 data points at end of each condition.
Inhibitory effects (% inhibition) on peak currents at Test 1 or Test 2 pulse are plotted against test concentration and IC50 values at Test 1 (Closed IC50) or Test 2 (Inactivated IC50) are calculated with Hill equation, respectively. […]
After whole-cell configuration is achieved, the cell is monitored at least 10-15 minutes to allow cell dialysis with pipette solution. […]

Nav1.7 [2] = biological target: T1, Nav1.7; assay: EFS-FRET assay; assay type: cell-based; parameters: expressed in transfected cells; host or cells: CHO (Chinese hamster ovary) cells; conditions: CHO cells expressing human Nav1.7 channels, read-out: IC50 against Nav1.7
Protocol: This screen is used to determine the effects of compounds on human Nav1.7 channels, utilizing electrical field stimulation (EFS) system in 96-well plate format on FDSS (Hamamatsu Photonics) platform. The changes of membrane potential are monitored with FRET dye pair, DiSBAC2(3) and PTS18.
CHO (Chinese hamster ovary) cells expressing human Nav1.7 channels are grown in T225 flasks, in a 5% CO2 humidified incubator to about 80% confluence. Media composition consists of HAM/F12 with Glutamax I, 10% FCS, 100 units/mF penicillin and 100 microgram/mF hygromycin.
• Seed each cell lines (1×10^5 cells/well) into 96-well plates prior to experimentation. • Incubate at 37° C. in 5% CO2 for 24 hours. • Wash each well with assay buffer (140 mM NaCl, 4.5 mM KCl, 10 mM D-Glucose, 2 mM CaCl2, 1 mM MgCl2, 10 mM HEPES, pH 7.4 adjusted with NaOH) twice. • Add 1st loading solution containing 10 microM PTS18 and 0.06% Pluronic F-127 in assay buffer. • Incubate the plate at rt in dark for 1 hour. • Remove 1st loading solution and add 2nd loading solution containing 12.5 microM DiSBAC2(3), 1.25 mM Xylene Fast Yellow and 0.0075% Pluronic F-127 in assay buffer. • Place the plate under the dark at rt for 25 minutes. • Add compound solutions into the assay plate. • Set the assay plate in FDSS and place an EFS device on the plate. • Measure EFS-induced fluorescent response by FDSS.
The data are analyzed and reported as normalized ratios of intensities measured at […]. The process of calculating these ratios is performed as follows:
This analysis is performed using a computerized specific program designed for FDSS generated data. Fluorescence ratio values are plotted using XLfit to determine an IC50 value for each compound.

T1 sequence (Q15858 whole entry): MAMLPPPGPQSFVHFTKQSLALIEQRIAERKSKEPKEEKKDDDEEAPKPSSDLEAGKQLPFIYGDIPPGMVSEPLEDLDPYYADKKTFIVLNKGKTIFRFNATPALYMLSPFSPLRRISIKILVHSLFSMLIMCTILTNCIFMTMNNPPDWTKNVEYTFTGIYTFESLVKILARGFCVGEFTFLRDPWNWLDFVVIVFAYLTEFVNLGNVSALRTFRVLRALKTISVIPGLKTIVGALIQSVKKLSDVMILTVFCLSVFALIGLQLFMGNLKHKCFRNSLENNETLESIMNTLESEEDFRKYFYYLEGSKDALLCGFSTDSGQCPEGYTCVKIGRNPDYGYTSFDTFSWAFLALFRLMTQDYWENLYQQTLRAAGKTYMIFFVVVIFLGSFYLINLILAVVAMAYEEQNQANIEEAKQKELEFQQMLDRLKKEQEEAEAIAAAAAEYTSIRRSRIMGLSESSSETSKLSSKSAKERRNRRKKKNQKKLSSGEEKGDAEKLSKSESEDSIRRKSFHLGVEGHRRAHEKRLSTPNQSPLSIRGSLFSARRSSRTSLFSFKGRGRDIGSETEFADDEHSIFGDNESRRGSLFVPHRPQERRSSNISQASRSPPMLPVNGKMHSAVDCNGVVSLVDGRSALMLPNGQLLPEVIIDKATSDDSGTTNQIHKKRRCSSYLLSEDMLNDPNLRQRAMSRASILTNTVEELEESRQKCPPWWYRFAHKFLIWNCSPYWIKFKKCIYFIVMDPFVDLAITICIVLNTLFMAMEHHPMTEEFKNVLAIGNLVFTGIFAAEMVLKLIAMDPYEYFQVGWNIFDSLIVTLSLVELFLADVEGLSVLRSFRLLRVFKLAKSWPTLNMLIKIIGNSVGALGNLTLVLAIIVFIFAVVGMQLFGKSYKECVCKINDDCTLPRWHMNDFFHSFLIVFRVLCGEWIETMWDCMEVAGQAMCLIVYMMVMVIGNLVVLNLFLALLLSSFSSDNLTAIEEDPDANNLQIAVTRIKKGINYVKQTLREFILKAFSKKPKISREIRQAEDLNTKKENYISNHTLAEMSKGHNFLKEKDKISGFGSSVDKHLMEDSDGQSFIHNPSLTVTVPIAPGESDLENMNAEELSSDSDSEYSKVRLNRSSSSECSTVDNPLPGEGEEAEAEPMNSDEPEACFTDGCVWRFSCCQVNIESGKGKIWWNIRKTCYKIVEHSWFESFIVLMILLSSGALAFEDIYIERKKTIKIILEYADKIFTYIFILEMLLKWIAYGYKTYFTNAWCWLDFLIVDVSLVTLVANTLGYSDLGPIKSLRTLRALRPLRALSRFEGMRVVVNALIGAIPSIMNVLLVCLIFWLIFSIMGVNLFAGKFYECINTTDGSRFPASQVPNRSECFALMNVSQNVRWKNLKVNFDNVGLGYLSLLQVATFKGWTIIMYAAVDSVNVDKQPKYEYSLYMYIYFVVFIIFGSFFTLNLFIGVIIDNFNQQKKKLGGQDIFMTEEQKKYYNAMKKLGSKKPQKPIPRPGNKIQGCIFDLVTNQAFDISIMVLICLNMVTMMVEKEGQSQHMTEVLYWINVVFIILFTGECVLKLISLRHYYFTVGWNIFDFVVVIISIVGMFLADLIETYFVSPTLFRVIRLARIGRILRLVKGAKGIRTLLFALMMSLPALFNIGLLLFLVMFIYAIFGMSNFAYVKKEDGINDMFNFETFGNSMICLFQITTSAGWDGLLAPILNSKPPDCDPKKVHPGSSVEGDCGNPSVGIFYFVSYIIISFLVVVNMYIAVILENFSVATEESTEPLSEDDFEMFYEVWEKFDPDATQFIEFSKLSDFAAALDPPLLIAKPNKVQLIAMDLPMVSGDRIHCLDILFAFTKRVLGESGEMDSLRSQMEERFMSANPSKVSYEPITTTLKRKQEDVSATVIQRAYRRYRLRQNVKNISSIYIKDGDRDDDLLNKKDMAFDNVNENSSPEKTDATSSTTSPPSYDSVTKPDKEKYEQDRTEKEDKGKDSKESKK

Ki (Nav1.7 [1]): < 200 nM
IC50 (Nav1.7 [2]): < 500 nM
SMILES: O=C(N[C@@H]1CCCN(c2ncc(C(F)(F)F)cc2Cl)C1)c1ccnc(NC(=O)C2CC2)c1 [Example 7]
